# pKi: −log10 of the molar value.
# Target: T1, Aurora-2 (Homo sapiens, UniProt O14965)
# T1 construct: addition of 10 μL of Aurora-2 stock solution to give a final concentration of 70 nM
# T1 sequence (O14965 1-403): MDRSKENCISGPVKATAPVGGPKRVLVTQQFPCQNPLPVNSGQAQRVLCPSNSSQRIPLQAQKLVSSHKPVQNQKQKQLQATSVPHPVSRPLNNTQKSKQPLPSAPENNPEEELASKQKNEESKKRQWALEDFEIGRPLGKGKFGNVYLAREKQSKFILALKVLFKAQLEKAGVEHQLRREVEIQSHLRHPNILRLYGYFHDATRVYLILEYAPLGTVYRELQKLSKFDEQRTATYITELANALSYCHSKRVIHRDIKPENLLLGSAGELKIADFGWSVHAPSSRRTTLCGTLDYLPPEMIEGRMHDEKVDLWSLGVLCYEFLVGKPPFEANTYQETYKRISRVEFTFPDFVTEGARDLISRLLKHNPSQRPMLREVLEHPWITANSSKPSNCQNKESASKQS
# Assay: Inhibition of AUR-2, coupled enzyme assay
# Type: biochemical
# Conditions: 70 nM Aurora-2, 800 μM peptide LRRASLG, 30° C.
# Procedure, shortened: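 Coupled pyruvate kinase/lactate dehydrogenase assay with 70 nM Aurora-2, 800 μM LRRASLG peptide and […] in 0.1 M HEPES pH 7.5, 10 mM MgCl2, 1 mM DTT, 25 mM NaCl. Compound (up to 30 μM final) preincubated 10 min at 30 °C; NADH absorbance at 340 nm followed 5 min. Ki from rates versus inhibitor concentration.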
row,Compound,pKi
1,"Cc1cnc2[nH]cc(-c3oncc3-c3cccc(F)c3F)c2c1 [Compound 46, 3-[4-(2,3-Difluoro-phenyl)-isoxazol-5-yl]-5-methyl-1H-pyrrolo[2,3-b]pyridine]",6.00 to 6.70
2,"Fc1cccc(-c2cnoc2-c2c[nH]c3ncc(Cl)cc23)c1F [Compound 44, 3-[4-(2,3-Difluoro-phenyl)-isoxazol-5-yl]-5-chloro-1H-pyrrolo[2,3-b]pyridine]",> 6.70
3,NC(=O)c1ccc(-c2cnc3[nH]cc(-c4oncc4-c4cccc(F)c4F)c3c2)cc1 [Compound 153],> 6.70

# Reference: US7446199B2, “Compositions useful as inhibitors of protein kinases” (Vertex Pharmaceuticals Incorporated, priority 2003, dated 2008)
